Test results published in ChEMBL document CHEMBL3045394, “Synthesis and antiinflammatory activity of certain benzothieno[3,2-d][1,2,4]triazolo[4,3-b] pyridazine derivatives” (2012).

Each molecule was assayed on Rattus norvegicus (assay: Anti-inflammatory activity inRattus norvegicus albino (rat) assessed as inhibition of carageenaan-induced paw edema at 10 mg/kg, po administered 1 hr prior to carrageenan-challenge measured after 4 hr relative to control).

Compared with `Oc1nn2cnnc2c2c1sc1c(Br)cccc12`, `NNc1nn2cnnc2c2c1sc1c(Br)cccc12` is higher in inhibition in vivo at 10 mg/kg: 9.7% for the first, 52.8% for the second.

Going from `COc1ccccc1-c1nnc2c3c(sc4c(Br)cccc43)c(N3CCCCC3)nn12` to `COc1ccccc1-c1nnc2c3c(sc4c(Br)cccc43)c(NN)nn12`, the inhibition in vivo at 10 mg/kg rises from 8.4% to 78.7%.

`COc1ccc2c(c1)c(CC(=O)O)c(C)n2C(=O)c1ccc(Cl)cc1` [INDOMETHACIN] gave an inhibition in vivo at 10 mg/kg of 50.5%.
